The record followed here is ChEMBL document CHEMBL1201862, “PubChem BioAssay data set” (2004).

Each structure is given as a SMILES string. The source made the active and inactive calls. For most assays here, no stated cut-off is given here; in the data, actives have a measured EC50 and inactives only a lower limit. Where only a bound is given, the exact number is not on record here.

Assay [1] has as its target T1, Corticotropin-releasing factor receptor 2/Corticotropin-releasing factor-binding protein (Homo sapiens, UniProt P24387+Q13324).
T1 sequence (Q13324 whole entry): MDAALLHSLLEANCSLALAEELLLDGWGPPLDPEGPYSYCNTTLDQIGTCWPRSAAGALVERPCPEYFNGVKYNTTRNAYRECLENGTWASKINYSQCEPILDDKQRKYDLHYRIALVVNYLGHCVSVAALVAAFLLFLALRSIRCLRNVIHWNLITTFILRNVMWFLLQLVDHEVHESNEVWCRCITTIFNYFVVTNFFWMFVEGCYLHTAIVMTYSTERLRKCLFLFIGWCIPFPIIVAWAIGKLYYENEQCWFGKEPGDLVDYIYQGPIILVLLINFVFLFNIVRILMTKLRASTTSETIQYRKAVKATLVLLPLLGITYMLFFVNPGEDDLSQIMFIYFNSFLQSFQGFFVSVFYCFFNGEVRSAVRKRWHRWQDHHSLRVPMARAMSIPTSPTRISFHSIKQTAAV
T1 sequence (P24387 whole entry): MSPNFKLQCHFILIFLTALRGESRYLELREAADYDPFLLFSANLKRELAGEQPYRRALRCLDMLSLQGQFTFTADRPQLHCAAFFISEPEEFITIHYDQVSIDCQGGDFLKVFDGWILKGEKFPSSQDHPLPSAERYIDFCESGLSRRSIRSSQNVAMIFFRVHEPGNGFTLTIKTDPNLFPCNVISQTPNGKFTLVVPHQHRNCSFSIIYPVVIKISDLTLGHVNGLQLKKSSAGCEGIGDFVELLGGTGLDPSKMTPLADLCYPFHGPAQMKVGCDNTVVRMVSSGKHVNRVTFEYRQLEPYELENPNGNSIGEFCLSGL
Description: Dose Response confirmation of uHTS hits for small molecule antagonists of the CRF-binding protein and CRF-R2 receptor complex. It counts as functional. The conditions noted are these: read-out: IC50_Mean.

Assay [2] has as its target T1, Corticotropin-releasing factor receptor 2/Corticotropin-releasing factor-binding protein. Description: activators of CRF receptor 2 with binding protein – uHTS hits, confirmation (AID 602473). The following applies: read-out: EC50_Mean. It counts as functional.
Assay [3] has as its target Luciferin 4-monooxygenase (Photinus pyralis, UniProt P08659). Description: inhibition of purified Photinus pyralis luciferase – biochemical, luminescence, dose response (AID 1891).
Assay [4] is described as follows: Luminescence Cell-Based Dose Confirmation HTS to Identify Inhibitors of Platelet Dense Granule Release. [Related pubchem assays: 1663 (Primary HTS), 1678 (Summary of Project)]. It counts as functional.
In assay [5] the target is T2, Heat shock factor protein 1 (Mus musculus, UniProt P38532).
T2 sequence (P38532 whole entry): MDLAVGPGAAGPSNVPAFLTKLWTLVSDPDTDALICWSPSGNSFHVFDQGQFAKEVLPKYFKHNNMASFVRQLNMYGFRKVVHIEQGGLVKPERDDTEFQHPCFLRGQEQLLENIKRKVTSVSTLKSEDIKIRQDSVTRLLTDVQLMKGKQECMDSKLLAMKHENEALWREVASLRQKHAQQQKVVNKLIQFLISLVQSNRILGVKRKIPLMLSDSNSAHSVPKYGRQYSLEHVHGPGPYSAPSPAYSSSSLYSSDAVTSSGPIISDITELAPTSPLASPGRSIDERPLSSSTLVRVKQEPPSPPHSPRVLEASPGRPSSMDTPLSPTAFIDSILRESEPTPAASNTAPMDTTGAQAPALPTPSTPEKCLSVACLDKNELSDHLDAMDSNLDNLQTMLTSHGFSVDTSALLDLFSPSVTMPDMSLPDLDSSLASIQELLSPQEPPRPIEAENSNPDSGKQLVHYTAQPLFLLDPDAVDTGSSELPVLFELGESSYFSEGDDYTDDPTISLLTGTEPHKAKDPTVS
Description: enhancement of HSF1-driven luciferase signal – cell-based, NIH3T3, luminescence, dose retest, confirmation (AID 435004).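 Further: stress induced by proteasome inhibitor MG132 added 30 min after compound; luciferase reporter driven by HSF1 response element in NIH3T3 cells; actives raise luminescence as potentiators of the MG132 stress response.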 It counts as functional.

Assay [6] in a line: NIH-3T3 fibroblast cytotoxicity, dose response, cytotoxicity control, cell-based, fluorescence, Alamar Blue, secondary assay (AID 2327).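 Further: NIH-3T3 mouse fibroblasts cultured with fluconazole at 8 µg/mL.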 It counts as functional. For orientation: Alamar Blue is a resazurin reagent that responds to reducing activity.
The nature of assay [7]: fluconazole-exposed Candida albicans growth modulators – fluorescence, retest, confirmation (AID 2467). It counts as functional, cell-based.
The target of assay [8] is T3, Replicative DNA helicase DnaB (Mycobacterium tuberculosis, UniProt P9WMR3).
T3 sequence (P9WMR3 whole entry): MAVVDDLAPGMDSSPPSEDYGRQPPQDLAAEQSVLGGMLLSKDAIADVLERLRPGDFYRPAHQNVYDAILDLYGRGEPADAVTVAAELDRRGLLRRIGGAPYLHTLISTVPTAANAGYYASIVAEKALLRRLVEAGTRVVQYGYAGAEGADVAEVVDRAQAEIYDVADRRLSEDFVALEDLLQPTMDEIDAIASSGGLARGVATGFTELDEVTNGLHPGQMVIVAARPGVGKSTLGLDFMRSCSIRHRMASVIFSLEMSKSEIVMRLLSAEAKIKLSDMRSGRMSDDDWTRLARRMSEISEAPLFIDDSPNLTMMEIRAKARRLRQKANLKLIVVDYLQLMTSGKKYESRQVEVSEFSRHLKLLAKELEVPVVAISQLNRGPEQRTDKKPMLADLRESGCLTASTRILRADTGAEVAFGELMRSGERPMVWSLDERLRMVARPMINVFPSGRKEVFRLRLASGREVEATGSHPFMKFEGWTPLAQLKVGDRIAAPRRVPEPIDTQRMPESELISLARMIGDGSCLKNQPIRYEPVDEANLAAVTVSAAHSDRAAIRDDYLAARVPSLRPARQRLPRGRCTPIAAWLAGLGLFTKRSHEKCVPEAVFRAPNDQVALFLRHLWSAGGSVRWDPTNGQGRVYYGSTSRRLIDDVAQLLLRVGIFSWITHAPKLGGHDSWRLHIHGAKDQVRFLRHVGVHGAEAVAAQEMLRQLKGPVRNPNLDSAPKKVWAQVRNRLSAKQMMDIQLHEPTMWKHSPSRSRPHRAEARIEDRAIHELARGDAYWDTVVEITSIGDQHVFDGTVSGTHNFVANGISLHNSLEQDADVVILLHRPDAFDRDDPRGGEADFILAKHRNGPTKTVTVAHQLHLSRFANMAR
Description: DnaB intein splicing inhibitors, dose response, biochemical, cell-free fluorescence (AID 449749). It counts as functional.

Another assay addresses T4, Protein RecA (Mycobacterium tuberculosis, UniProt P9WHJ3).
T4 sequence (P9WHJ3 whole entry): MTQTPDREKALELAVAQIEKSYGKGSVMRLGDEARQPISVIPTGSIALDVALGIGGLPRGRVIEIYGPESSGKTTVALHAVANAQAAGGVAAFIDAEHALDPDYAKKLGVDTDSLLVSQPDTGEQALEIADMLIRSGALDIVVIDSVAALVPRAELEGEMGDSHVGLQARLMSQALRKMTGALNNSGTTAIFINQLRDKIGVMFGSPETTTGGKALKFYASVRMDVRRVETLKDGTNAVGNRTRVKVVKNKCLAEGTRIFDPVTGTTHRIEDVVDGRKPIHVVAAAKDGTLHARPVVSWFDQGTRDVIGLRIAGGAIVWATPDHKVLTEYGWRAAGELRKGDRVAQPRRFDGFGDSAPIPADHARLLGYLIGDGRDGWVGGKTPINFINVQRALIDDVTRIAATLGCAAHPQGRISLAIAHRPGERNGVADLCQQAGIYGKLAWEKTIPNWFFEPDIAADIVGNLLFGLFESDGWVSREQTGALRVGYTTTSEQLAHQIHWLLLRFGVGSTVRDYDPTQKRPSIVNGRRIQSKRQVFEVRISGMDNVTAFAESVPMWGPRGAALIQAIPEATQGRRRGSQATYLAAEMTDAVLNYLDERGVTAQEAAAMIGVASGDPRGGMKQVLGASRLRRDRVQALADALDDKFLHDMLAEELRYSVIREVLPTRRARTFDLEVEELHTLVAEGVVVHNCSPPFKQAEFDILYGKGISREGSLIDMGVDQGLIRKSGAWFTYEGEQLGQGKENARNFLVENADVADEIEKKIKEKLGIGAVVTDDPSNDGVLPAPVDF
Description: Fluorescence Cell-Free Homogeneous Dose Retest to Identify Inhibitors of RecA-Intein Splicing Activity. [Related pubchem assays (depositor defined):AID2097, AID2223, AID489010, AID492950]. It counts as functional.

Assay [9] in a line: Trypanosoma cruzi growth suppression in host cells – NIH3T3 host cells, beta-gal luminescence, confirmation (AID 2044).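 Further: intracellular parasites grown in NIH/3T3 mouse fibroblasts as host cells; luminescent beta-galactosidase reporter signal from transgenic T. cruzi replicating inside host cells; inhibitors lower the luminescence signal.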 It counts as functional, cell-based.
Assay [10] is described as follows: NIH3T3 cell viability loss – ATP luminescence, mouse fibroblasts, counter-screen, dose response (AID 2010).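 Further: cells exposed to compound for about 90 hours before reading.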 It counts as functional, cell-based.
Assay [11] is described as follows: HIV-1 AD8 envelope cell-cell fusion blockers – cherry-pick, dose response (AID 652062).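 Further: luciferase signal from cell-cell fusion driven by HIV-1 clade B AD8 Env; potency is for inhibitors of fusion seen as a drop in luminescence.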 It counts as functional, cell-based.

Luciferin 4-monooxygenase, sequence (P08659 whole entry): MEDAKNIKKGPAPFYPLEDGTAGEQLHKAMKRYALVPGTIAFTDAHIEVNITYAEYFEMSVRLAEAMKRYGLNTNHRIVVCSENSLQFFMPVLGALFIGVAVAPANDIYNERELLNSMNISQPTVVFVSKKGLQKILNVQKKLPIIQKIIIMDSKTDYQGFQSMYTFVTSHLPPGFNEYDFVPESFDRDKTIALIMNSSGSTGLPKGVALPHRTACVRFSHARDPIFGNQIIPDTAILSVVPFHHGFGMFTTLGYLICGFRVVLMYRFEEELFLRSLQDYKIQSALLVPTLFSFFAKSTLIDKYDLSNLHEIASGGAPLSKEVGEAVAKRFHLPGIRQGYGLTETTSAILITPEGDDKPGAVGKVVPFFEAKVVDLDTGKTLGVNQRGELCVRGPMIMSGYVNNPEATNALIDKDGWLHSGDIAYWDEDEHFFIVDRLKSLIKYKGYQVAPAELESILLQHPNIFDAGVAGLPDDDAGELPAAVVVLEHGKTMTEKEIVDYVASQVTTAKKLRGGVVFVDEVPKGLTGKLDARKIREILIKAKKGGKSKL

With `N#CCC(=O)Nc1ccc(C(=O)OCC(=O)NNC(=O)c2cccs2)cc1`, in assay [1], the IC50 is > 47.1 µM (inactive). Also, the EC50 in [2] is > 53 µM (inactive).

As to `COc1ccc(S(=O)(=O)N(c2onc(C)c2Cl)S(=O)(=O)c2ccc(OC)cc2)cc1`, the IC50 in [1] is > 47.1 µM (inactive). For the same compound, the EC50 in assay [2] was > 53 µM (inactive).

As for `COc1nc2ccccc2nc1OC`, the EC50 in assay [3] and in [4] was > 112 µM (not active) throughout.

Consider `OC(CNCc1cccc(Cl)c1)c1ccccc1` (stereo not given), for which the EC50 in [3] was > 112 µM (not active); in assay [4], 21.2 µM (active); in assay [5], > 260 µM (inactive).

With `O=[N+]([O-])c1cccc(COc2ccc(CN3CCOCC3)cc2)c1`, the IC50 in assay [1] was > 47.1 µM (inactive). In addition, the EC50 in assay [2] is > 53 µM (inactive).

Turning to `Nc1c(Cl)ncnc1N/N=C/c1cccc(O)c1`, the EC50 in assay [3] was 58.1 µM (active); in assay [4] it was 22 µM (active).

Consider `O=C(CCc1nnc2ccc(NCc3ccco3)nn12)N1CCN(c2ccccc2F)CC1`, for which the IC50 in [1] is > 47.1 µM (inactive). In addition, the EC50 in assay [2] was > 53 µM (inactive).

Regarding `Cc1ccc(-n2nc(C)c(/C=N/NC(=O)c3ccc([N+](=O)[O-])cc3)c2O)c(C)c1`, the EC50 in assay [6] was 11.7 µM (active); in assay [7], 1.71 µM (active); on Protein RecA, 21.2 µM (active). For the same compound, the AC50 in [8] is 6.38 µM (active).

As for `O=S(=O)(Nc1ccc(-c2ccc(N3CCOCC3)nn2)cc1)c1ccc(Cl)c(Cl)c1`, the EC50 in assay [3] is 35.3 µM (active); in assay [4], > 112 µM (not active).

`O=C(CSc1cccc[n+]1[O-])CSc1cccc[n+]1[O-]`: the EC50 in assay [6] is > 160 µM (inactive); in [7] it was 3.9 µM (active); in assay [9] it was 6.09 µM (active); in assay [10] it was > 30 µM (not active).

Turning to `c1ccc(-c2noc(CN3CCN(c4cnccn4)CC3)n2)cc1`, the IC50 in [1] was > 47.1 µM (inactive). Besides, the EC50 in [2] was > 53 µM (inactive).

Consider `CC1(C)CC(=O)C=C(Nc2ccc3c(c2)OCCO3)C1`, for which the values for the EC50 in [3] and in assay [4] were > 112 µM (not active) and 11 µM (active), respectively.

With `CCN(CC)CC(=O)n1c2c(c3ccccc31)CCCC2`, the EC50 in [3] and in assay [4] was > 112 µM (not active) throughout.

Consider `C/[N+]([O-])=C\c1ccc([N+](=O)[O-])o1`, for which the EC50 in assay [6] is > 160 µM (inactive); in assay [7] it was 0.885 µM (active); in assay [9], 0.54 µM (active); in [10] it was > 60 µM (not active).

As for `Cc1ccc(NS(=O)(=O)c2cccc3nsnc23)cc1`, the IC50 in [1] is > 47.1 µM (inactive). Besides, the EC50 in assay [2] is > 53 µM (inactive).

As for `O=C(Nc1ccc(C(=O)N2CCN(c3ccc(Cl)cc3)CC2)cc1)C1=CSCCO1`, the EC50 in assay [3] is 31.2 µM (active); in assay [4], > 112 µM (not active).

Regarding `CN(C)Cc1cn(CC[C@@H]2CC[C@H](N)[C@H](CO)O2)nn1`, the AC50 in assay [11] was 22.9 µM (active).

For orientation: AC50 means the concentration at which the activity in the assay is half-maximal.
